Source: the supplement of paper PMC10307832

Assays:
Assay in all cases: relative viability (nuclei count vs DMSO), 5 days (fraction); higher = more cells survive
[1] = compound: NCC(=O)Nc1ccc(-n2nc(C(F)(F)F)cc2-c2ccc3c(ccc4ccccc43)c2)cc1 + N=C(N)NC(=N)NCCc1ccccc1 [Phenformin] (partner 250 µM)
Outline: (§1)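 Lung cancer cell lines were seeded in 1536-well plates and dosed by pin tool the next day, with either a single drug or a fixed anchor-drug dose combined with five library-drug doses (not always all listed) spaced in √10 steps. Five days later, one step fixed the cells and stained their nuclei (final 0.05% Triton X-100, 1% formaldehyde, 1 ug/ml Hoechst), and nuclei were counted on 4× images. Relative viability is the nuclei count in treated wells divided by the count in vehicle wells, and each value is the median of duplicate plates.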

kb NB 142-70 + AZD7762 = compound: C1CSC2=C(C(=O)N1)SC3=C2C=C(C=C3)O [kb NB 142-70] + NC(=O)Nc1cc(-c2cccc(F)c2)sc1C(=O)N[C@H]1CCCNC1 [AZD7762] (partner 0.2 µM)
Outline: as §1

[2] = compound: NCC(=O)Nc1ccc(-n2nc(C(F)(F)F)cc2-c2ccc3c(ccc4ccccc43)c2)cc1 + O=C(c1cc(Cc2n[nH]c(=O)c3ccccc23)ccc1F)N1CCN(C(=O)C2CC2)CC1 [Olaparib] (partner 8 µM)
Outline: as §1

[3] = compound: C1CSC2=C(C(=O)N1)SC3=C2C=C(C=C3)O [kb NB 142-70] + CC(=O)Nc1cccc(-n2c(=O)n(C3CC3)c(=O)c3c(Nc4ccc(I)cc4F)n(C)c(=O)c(C)c32)c1 [Trametinib] (partner 0.02 µM)
Outline: as §1

[4] = compound: C1CSC2=C(C(=O)N1)SC3=C2C=C(C=C3)O [kb NB 142-70] + CCNC(=O)c1noc(-c2cc(C(C)C)c(O)cc2O)c1-c1ccc(CN2CCOCC2)cc1 [Luminespib] (partner 0.01 µM)
Outline: as §1

| Cell Line | relative viability ([1]; first compound 0.02 µM) | relative viability ([1]; first compound 0.06325 µM) | relative viability ([1]; first compound 0.2 µM) | relative viability ([1]; first compound 0.6325 µM) | relative viability ([1]; first compound 2 µM) | relative viability (kb NB 142-70 + AZD7762; first compound 0.1 µM) | relative viability (kb NB 142-70 + AZD7762; first compound 1 µM) | relative viability (kb NB 142-70 + AZD7762; first compound 3.162 µM) | relative viability ([2]; first compound 0.02 µM) | relative viability ([2]; first compound 0.06325 µM) | relative viability ([2]; first compound 0.2 µM) | relative viability ([2]; first compound 0.6325 µM) | relative viability ([2]; first compound 2 µM) | relative viability ([3]; first compound 0.1 µM) | relative viability ([3]; first compound 1 µM) | relative viability ([3]; first compound 3.162 µM) | relative viability ([4]; first compound 0.1 µM) | relative viability ([4]; first compound 1 µM) | relative viability ([4]; first compound 3.162 µM) |
| --- | --- | --- | --- | --- | --- | --- | --- | --- | --- | --- | --- | --- | --- | --- | --- | --- | --- | --- | --- |
| HCC-366 | 0.589 | 0.649 | 0.595 | 0.625 | 0.596 | 0.277 | 0.572 | 0.734 | 0.351 | 0.406 | 0.345 | 0.387 | 0.349 | 0.321 | 0.274 | 0.232 | – | – | – |
| HCC-827 | 0.397 | 0.431 | 0.406 | 0.385 | 0.385 | 0.233 | 0.195 | 0.255 | 0.916 | 0.642 | 0.61 | 0.595 | 0.767 | 0.539 | 0.53 | 0.395 | 0.589 | 0.59 | 0.373 |
| HOP-62 | 0.683 | 0.7 | 0.644 | 0.608 | 0.735 | 0.691 | 1.1 | 0.764 | 0.284 | 0.361 | 0.381 | 0.408 | 0.431 | 0.401 | 0.427 | 0.545 | 0.971 | 0.884 | 1.06 |
| IA-LM | – | – | – | – | – | – | – | – | 0.986 | 0.722 | 0.951 | 0.896 | 1 | – | – | – | – | – | – |
| LC-2-ad | 0.531 | 0.643 | 0.609 | 0.614 | 0.649 | 0.826 | 0.825 | 0.888 | 0.676 | 0.801 | 0.728 | 0.719 | 0.698 | 0.898 | 0.937 | 0.875 | 0.997 | 1.04 | 0.699 |
| LCLC-97TM1 | 0.397 | 0.434 | 0.466 | 0.442 | 0.442 | 0.346 | 0.231 | 0.563 | 0.538 | 0.421 | 0.317 | 0.409 | 0.364 | 0.197 | 0.183 | 0.174 | 0.72 | 0.76 | 0.692 |
| LCLC-103H | 0.344 | 0.331 | 0.332 | 0.327 | 0.315 | 0.766 | 0.782 | 0.894 | 0.685 | 0.793 | 0.787 | 0.765 | 0.752 | 0.672 | 0.654 | 0.803 | 0.956 | 0.997 | 0.903 |
| LK-2 | 0.31 | 0.638 | 0.425 | 0.496 | 0.435 | 0.308 | 0.319 | 0.329 | 0.758 | 0.78 | 0.799 | 0.666 | 0.671 | 0.814 | 0.651 | 0.729 | 0.206 | 0.215 | 0.173 |
| NCI-H520 | 0.574 | 0.628 | 0.641 | 0.625 | 0.618 | – | – | – | 0.404 | 0.285 | 0.377 | 0.339 | 0.334 | 0.69 | 0.618 | 0.386 | 0.255 | 0.247 | 0.214 |
| NCI-H661 | 0.267 | 0.259 | 0.268 | 0.295 | 0.27 | – | – | – | 0.773 | 0.731 | 0.763 | 0.713 | 0.73 | 0.532 | 0.578 | 0.567 | 0.905 | 0.845 | 0.805 |
| NCI-H1299 | – | – | – | – | – | – | – | – | 0.96 | 0.916 | 0.977 | 0.918 | 0.998 | – | – | – | – | – | – |
| NCI-H1563 | 0.606 | 0.664 | 0.658 | 0.633 | 0.712 | – | – | – | – | – | – | – | – | – | – | – | 0.597 | 0.498 | 0.538 |
| NCI-H1623 | 0.604 | 0.671 | 0.6 | 0.577 | 0.555 | – | – | – | – | – | – | – | – | – | – | – | 0.427 | 0.476 | 0.594 |
| NCI-H1648 | – | – | – | – | – | 0.585 | 0.811 | 0.933 | 0.577 | 1.03 | 1.02 | 0.649 | 0.56 | 0.459 | 0.551 | 0.417 | – | – | – |
| NCI-H1650 | 0.426 | 0.49 | – | 0.515 | 0.449 | – | – | – | 0.802 | 0.89 | 0.875 | 0.827 | 0.774 | 0.557 | 0.507 | 0.761 | 0.204 | 0.19 | 0.18 |
| NCI-H1703 | – | – | – | – | – | 0.125 | 0.134 | 0.134 | 0.498 | 0.356 | 0.644 | 0.367 | 0.368 | – | – | – | – | – | – |
| NCI-H2009 | 0.459 | 0.503 | 0.482 | 0.479 | 0.525 | – | – | – | 0.681 | 0.72 | 0.75 | 0.657 | 0.679 | 0.284 | 0.29 | 0.263 | 1.15 | 1.05 | 0.685 |
| NCI-H2023 | 0.414 | 0.441 | 0.403 | 0.454 | 0.412 | – | – | – | 0.604 | 0.543 | 0.516 | 0.401 | 0.464 | 0.52 | 0.559 | 0.566 | 0.747 | 0.661 | 0.272 |
| NCI-H2228 | 0.432 | 0.484 | 0.352 | 0.266 | 0.31 | – | – | – | 0.354 | 0.641 | 0.827 | 0.52 | 0.633 | 0.696 | 0.497 | 0.235 | 0.176 | 0.13 | 0.119 |
| SK-LU-1 | 0.514 | 0.584 | 0.617 | 0.502 | 0.55 | – | – | – | 0.477 | 0.463 | 0.589 | 0.479 | 0.556 | 0.486 | 0.548 | 0.27 | 0.198 | 0.199 | 0.204 |
| SK-MES-1 | 0.707 | 0.705 | 0.662 | 0.666 | 0.704 | – | – | – | 0.773 | 0.727 | 0.84 | 0.775 | 0.706 | 0.547 | 0.631 | 0.714 | 0.84 | 0.743 | 0.35 |
| SW 1573 | 0.394 | 0.356 | 0.383 | 0.401 | 0.366 | – | – | – | 0.554 | 0.506 | 0.531 | 0.479 | 0.404 | 0.541 | 0.475 | 0.418 | 0.21 | 0.413 | 0.149 |
